Data published in US8846947B2, “Benzimidazoles and related analogs as sirtuin modulators” (GlaxoSmithKline LLC, priority 2008, dated 2014).

Target: T1, SIRT1 (Homo sapiens, UniProt Q96EB6)
T1 sequence (Q96EB6 1-747): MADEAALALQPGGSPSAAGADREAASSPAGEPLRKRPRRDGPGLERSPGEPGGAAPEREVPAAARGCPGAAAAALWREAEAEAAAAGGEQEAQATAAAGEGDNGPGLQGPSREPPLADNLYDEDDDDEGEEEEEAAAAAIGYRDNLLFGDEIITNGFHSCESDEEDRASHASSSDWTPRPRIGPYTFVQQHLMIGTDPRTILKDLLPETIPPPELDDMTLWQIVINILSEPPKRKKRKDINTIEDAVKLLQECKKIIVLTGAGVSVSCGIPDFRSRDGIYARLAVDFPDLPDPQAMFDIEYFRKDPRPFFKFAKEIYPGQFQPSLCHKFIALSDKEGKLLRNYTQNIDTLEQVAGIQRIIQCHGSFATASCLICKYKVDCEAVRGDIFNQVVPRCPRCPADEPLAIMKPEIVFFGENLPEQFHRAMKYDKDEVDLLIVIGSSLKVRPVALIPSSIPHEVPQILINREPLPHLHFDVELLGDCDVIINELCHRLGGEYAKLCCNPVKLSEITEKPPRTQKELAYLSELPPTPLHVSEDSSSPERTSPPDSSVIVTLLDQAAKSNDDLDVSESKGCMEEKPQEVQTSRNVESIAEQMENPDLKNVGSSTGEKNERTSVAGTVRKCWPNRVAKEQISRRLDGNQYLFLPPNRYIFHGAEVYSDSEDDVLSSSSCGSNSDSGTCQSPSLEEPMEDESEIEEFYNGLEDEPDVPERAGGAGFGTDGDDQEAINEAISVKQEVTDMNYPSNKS
Test: Mass spectrometry based SIRT1 deacetylase activation assay (acetylated p53-derived peptide substrate)
Type: biochemical

Row | Structure (SMILES) | EC1.5 | Fold Act. (percent maximum fold activation)
1 | O=C(Nc1cccnc1)c1cccc2[nH]c(-c3cccc(N4CCOCC4)c3)nc12 [Compound 288] | A (EC1.5<1.0 uM) | A (Fold activation >200%)
2 | O=C(Nc1ccccn1)c1cccc2[nH]c(-c3cccc(N4CCOCC4)c3)nc12 [Compound 289] | A (EC1.5<1.0 uM) | A (Fold activation >200%)
3 | O=C(Nc1nccs1)c1cccc2[nH]c(-c3ccc(Cl)cc3C(F)(F)F)nc12 [Compound 290] | A (EC1.5<1.0 uM) | A (Fold activation >200%)
4 | Cc1nn(-c2ccccc2)c(C)c1-c1nc2c(C(=O)Nc3nccs3)cccc2[nH]1 [Compound 291] | A (EC1.5<1.0 uM) | A (Fold activation >200%)
5 | Cc1csc(-c2nc3c(C(=O)Nc4nccs4)cccc3[nH]2)n1 [Compound 292] | A (EC1.5<1.0 uM) | A (Fold activation >200%)
6 | Cc1ncsc1-c1nc2c(C(=O)Nc3nccs3)cccc2[nH]1 [Compound 293] | B (EC1.5 1-25 uM) | A (Fold activation >200%)
7 | O=C(Nc1nccs1)c1cccc2[nH]c(-c3ccncc3Cl)nc12 [Compound 294] | B (EC1.5 1-25 uM) | A (Fold activation >200%)
8 | Cn1nc(C(F)(F)F)c(-c2nc3c(C(=O)Nc4nccs4)cccc3[nH]2)c1Cl [Compound 295] | A (EC1.5<1.0 uM) | A (Fold activation >200%)
9 | O=C(Nc1nccs1)c1cccc2[nH]c(-c3ncccc3C(F)(F)F)nc12 [Compound 296] | B (EC1.5 1-25 uM) | A (Fold activation >200%)
10 | O=C(Nc1cnccn1)c1cccc2[nH]c(-c3cccc(N4CCOCC4)c3)nc12 [Compound 297] | A (EC1.5<1.0 uM) | A (Fold activation >200%)
11 | O=C(NC1CCNCC1)c1cccc2[nH]c(-c3cccc(C(F)(F)F)c3)nc12 [Compound 298] | B (EC1.5 1-25 uM) | A (Fold activation >200%)
12 | Cc1cc(NC(=O)c2cccc3[nH]c(-c4cccc(C(F)(F)F)c4)nc23)no1 [Compound 299] | B (EC1.5 1-25 uM) | A (Fold activation >200%)
13 | O=C(Nc1cccnn1)c1cccc2[nH]c(-c3cccc(C(F)(F)F)c3)nc12 [Compound 300] | A (EC1.5<1.0 uM) | A (Fold activation >200%)
14 | O=C(N[C@H]1CCNC1)c1cccc2[nH]c(-c3cccc(C(F)(F)F)c3)nc12 [Compound 301] | C (EC1.5 >25 uM) | B (Fold Activation <200%)
15 | O=C(Nc1nccs1)c1cccc2[nH]c(-c3cc(F)ccc3C(F)(F)F)nc12 [Compound 302] | A (EC1.5<1.0 uM) | A (Fold activation >200%)
16 | Cn1ccc(-c2nc3c(C(=O)Nc4nccs4)cccc3[nH]2)n1 [Compound 303] | B (EC1.5 1-25 uM) | A (Fold activation >200%)
17 | Cc1nc(C)c(-c2nc3c(C(=O)Nc4nccs4)cccc3[nH]2)s1 [Compound 304] | A (EC1.5<1.0 uM) | A (Fold activation >200%)
18 | O=C(Nc1nccs1)c1cccc2[nH]c(-c3ccccc3OC(F)(F)F)nc12 [Compound 305] | A (EC1.5<1.0 uM) | A (Fold activation >200%)
19 | Cc1cc(NC(=O)c2cccc3[nH]c(-c4cccc(C(F)(F)F)c4)nc23)sn1 [Compound 306] | B (EC1.5 1-25 uM) | B (Fold Activation <200%)
20 | O=C(Nc1ccc(Cl)nc1)c1cccc2[nH]c(-c3cccc(C(F)(F)F)c3)nc12 [Compound 307] | B (EC1.5 1-25 uM) | B (Fold Activation <200%)
21 | CCOC(=O)c1csc(NC(=O)c2cccc3[nH]c(-c4cccc(C(F)(F)F)c4)nc23)n1 [Compound 308] | B (EC1.5 1-25 uM) | A (Fold activation >200%)
22 | O=C(Nc1ccc(Cl)nn1)c1cccc2[nH]c(-c3cccc(C(F)(F)F)c3)nc12 [Compound 309] | C (EC1.5 >25 uM) | B (Fold Activation <200%)

Row | Structure (SMILES) | EC1.5 | Fold Act. (percent maximum fold activation)
23 | O=C(Nc1ccncc1)c1cccc2[nH]c(-c3ccnn3-c3ccccc3)nc12 [Compound 310] | A (EC1.5<1.0 uM) | A (Fold activation >200%)
24 | O=C(Nc1cccnc1)c1cccc2[nH]c(-c3ccnn3-c3ccccc3)nc12 [Compound 311] | B (EC1.5 1-25 uM) | A (Fold activation >200%)
25 | O=C(Nc1cccnc1)c1cccc2[nH]c(-c3ccc(Cl)cc3C(F)(F)F)nc12 [Compound 312] | A (EC1.5<1.0 uM) | A (Fold activation >200%)
26 | O=C(Nc1ccccn1)c1cccc2[nH]c(-c3ccc(Cl)cc3C(F)(F)F)nc12 [Compound 313] | A (EC1.5<1.0 uM) | A (Fold activation >200%)
27 | O=C(Nc1nccs1)c1cccc2[nH]c(-c3ccnc(N4CCNCC4)c3)nc12 [Compound 314] | B (EC1.5 1-25 uM) | A (Fold activation >200%)
28 | O=C(Nc1ccncc1)c1cccc2[nH]c(-c3ccc(Cl)cc3C(F)(F)F)nc12 [Compound 315] | A (EC1.5<1.0 uM) | A (Fold activation >200%)
29 | O=C(Nc1ccncc1)c1cccc2[nH]c(-c3cc(F)ccc3C(F)(F)F)nc12 [Compound 316] | A (EC1.5<1.0 uM) | A (Fold activation >200%)
30 | O=C(Nc1cccnc1)c1cccc2[nH]c(-c3cc(F)ccc3C(F)(F)F)nc12 [Compound 317] | A (EC1.5<1.0 uM) | A (Fold activation >200%)
31 | Cc1nc(C)c(-c2nc3c(C(=O)Nc4ccncc4)cccc3[nH]2)s1 [Compound 318] | A (EC1.5<1.0 uM) | A (Fold activation >200%)
32 | Cc1nc(C)c(-c2nc3c(C(=O)Nc4cccnc4)cccc3[nH]2)s1 [Compound 319] | A (EC1.5<1.0 uM) | A (Fold activation >200%)
33 | Cc1nc(C)c(-c2nc3c(C(=O)Nc4ccccn4)cccc3[nH]2)s1 [Compound 320] | B (EC1.5 1-25 uM) | A (Fold activation >200%)
34 | O=C(Nc1ncc(F)s1)c1cccc2[nH]c(-c3ccc(Cl)cc3C(F)(F)F)nc12 [Compound 321] | A (EC1.5<1.0 uM) | A (Fold activation >200%)
35 | O=C(Nc1cc[n+]([O-])cc1)c1cccc2[nH]c(-c3cc(F)ccc3C(F)(F)F)nc12 [Compound 322] | A (EC1.5<1.0 uM) | A (Fold activation >200%)
36 | O=C(Nc1ccccn1)c1cccc2[nH]c(-c3cc(F)ccc3C(F)(F)F)nc12 [Compound 323] | A (EC1.5<1.0 uM) | A (Fold activation >200%)
37 | O=C(Nc1nccs1)c1cccc2[nH]c(-c3cccc(OCC(O)CO)c3)nc12 (stereo not shown) [Compound 324, 2-(3-(2,3-dihydroxypropoxy)phenyl)-N-(thiazol-2-yl)-1H-benzo[d]imidazole-4-carboxamide] | A (EC1.5<1.0 uM) | A (Fold activation >200%)
38 | O=C(Nc1nccs1)c1cccc2[nH]c(-c3ccc(OCC(O)CO)cc3)nc12 (stereo not shown) [Compound 325] | A (EC1.5<1.0 uM) | A (Fold activation >200%)
39 | O=C(Nc1nccs1)c1cccc2[nH]c(-c3ccccc3OCC(O)CO)nc12 (stereo not shown) [Compound 326] | B (EC1.5 1-25 uM) | A (Fold activation >200%)
40 | Cn1nc(C(F)(F)F)c(-c2nc3c(C(=O)Nc4ccccn4)cccc3[nH]2)c1Cl [Compound 327] | A (EC1.5<1.0 uM) | A (Fold activation >200%)
41 | Cn1nc(C(F)(F)F)c(-c2nc3c(C(=O)Nc4cccnc4)cccc3[nH]2)c1Cl [Compound 328] | A (EC1.5<1.0 uM) | A (Fold activation >200%)
42 | O=C(Nc1cccc[n+]1[O-])c1cccc2[nH]c(-c3ccccc3C(F)(F)F)nc12 [Compound 329, 2-(2-(2-(trifluoromethyl)phenyl)-1H-benzo[d]imidazole-4-carboxamido)pyridine 1-oxide] | B (EC1.5 1-25 uM) | A (Fold activation >200%)
43 | O=C(Nc1cccc[n+]1[O-])c1cccc2[nH]c(-c3ccc(Cl)cc3C(F)(F)F)nc12 [Compound 330] | B (EC1.5 1-25 uM) | A (Fold activation >200%)
44 | O=C(Nc1ccc[n+]([O-])c1)c1cccc2[nH]c(-c3ccc(Cl)cc3C(F)(F)F)nc12 [Compound 331] | A (EC1.5<1.0 uM) | A (Fold activation >200%)
